Measured values: patent US20150166625A1 (Sanofi, priority 2013, published 2015)

Tested on: female diabetic dbdb-mice
Experiment: Glucose lowering in female diabetic dbdb-mice
Type: in vivo, mouse
Conditions: 100 μg/kg s.c.
Procedure: Female diabetic dbdb-mice (BKS.Cg-+Leprdb/+Leprdb/OlaHsd) 10 weeks of age at study start were used. Mice were habituated to feeding and housing conditions for at least 2 weeks. 7 days prior to study start, HbA1c were determined to allocate mice to groups, aiming to spread low, medium and high HbA1c-values and in consequence the group-means (n=8), as equally as possible. On the day of study, food was removed, directly before sampling for baseline glucose assessment (t=0 min). Immediately afterwards, compounds or vehicle (phosphor buffered saline, PBS) were administered subcutaneously, 100 μg/kg, 10 ml/kg. Afterwards, blood samples were drawn by tail tip incision at 15, 30, 60, 90, 120, 150, 180, 240, 360, 480 min and 24 h. Food was re-offered after the 480 min-sampling.
Data were analysed by 2-W-ANOVA on repeated measurements, followed by Dunnett's test as post-hoc assessment, level of significance p<0.05.

Substance: H-Aib-HGTFTSDLSKQLDEQLAKDFIEWLIAGGPSSGAPPPS-NH2 [SEQ ID NO: 9]
- maximal effect, glucose reduction (non-fasted female db/db mice, baseline on average 28 mmol/l): ~12 mmol/L

Substance: HSHGTFTSDLSKQLDEQLAKDFIEWLIAGGPSSGAPPPS-NH2 [SEQ ID NO: 10]
- reduction of glucose compared to vehicle control (female db/db mice, from t=60 min until 240 min, p<0.05): statistical significant reduction of glucose
